Measurements from US20120101098A1, “3,28-DISUBSTITUTED BETULINIC ACID DERIVATIVES AS ANTI-HIV AGENTS” (priority 2009, published 2012).
Read-outs that look alike come from different tables or passages of the source.

Key:
HIV-1 = experiment: Example 2 anti-HIV bioassay of C-28 ethylene glycol bevirimat analogs; type: cell-based; settings: Example 2 compounds (Scheme B)
in vitro [1] = experiment: in vitro
in vitro [2] = settings: human, mock-infected MT-2 cells
Description: (§1) HIV-1IIIB Replication Inhibition Assay in MT-2 Lymphocytes. The evaluation of HIV-1 inhibition was carried out as follows. […] Control wells containing virus and cells only (no drug) and cells only (no virus or drug) were also prepared. A second identical set of samples were added to cells under the same conditions without virus (mock infection) for cytotoxicity determinations (CC50 defined below). […] On day 4 PI, the assay was terminated and culture supernatants were harvested for p24 antigen ELISA analysis. The compound cytotoxicity was determined by XTT using the mock-infected sample wells.

HIV-1IIIB = HIV-1IIIB replication inhibition assay in MT-2 lymphocytes (p24 antigen ELISA); type: cell-based; settings: HIV-1IIIB infected MT-2 cell lines, concentration that inhibits HIV-1IIIB replication by 50%, NS: no suppression at concentrations below the CC50
Description: as §1

[3] = human, microsomes
mock-infected MT-2 cell [4] = system: mock-infected MT-2 cell
Description: as §1

[5] = Example 2 bioassay cytotoxicity (CC50); settings: Example 2 compounds (Scheme B)
[6] = Solubility (stated in words)
[7] = Protein binding affinity (stated in words, Example 2); type: in vitro ADME; settings: Example 2 compounds (Scheme B)
mock-infected MT-2 cell [8] = experiment: Cytotoxicity in mock-infected MT-2 cells (XTT); settings: concentration that inhibits mock-infected MT-2 cell growth by 50%
Description: as §1

HIV-1NL4-3 = HIV-1NL4-3 replication inhibition assay in MT-4 lymphocytes (p24 antigen ELISA); type: cell-based; settings: HIV-1NL4-3 infected MT-4 cell lines; concentration that inhibits HIV-1NL4-3 replication by 50%
Description: HIV-1NL4-3 Replication Inhibition Assay in MT-4 Lymphocytes. A previously described HIV-1 infectivity assay was used.^28,33 A 96-well microtiter plate was used to set up the HIV-1NL4-3 replication screening assay. NL4-3 variants at a multiplicity of infection (MOI) of 0.01 were used to infect MT4 cells. Culture supernatants were collected on day 4 post-infection for the p24 antigen capture using an ELISA kit from ZeptoMetrix Corporation (Buffalo, N.Y.).

mock-infected MT-4 cell = experiment: Cytotoxicity in mock-infected MT-4 cells; type: cell-based; settings: concentration that inhibits mock-infected MT-4 cell growth by 50%; read-out: CC50
[9] = In vitro metabolic stability in pooled human liver microsomes; settings: 3 μM, 0.2 mg/mL human liver microsome, NADPH
[10] = Human immunodeficiency virus 1, MT2
[11] = Example 2 compounds (Scheme B), C-28 ethylene glycol side chains on bevirimat

For `C=C(C)[C@@H]1CC[C@]2(C(=O)O)CC[C@]3(C)[C@H](CC[C@@H]4[C@@]5(C)CC[C@H](OC(=O)CC(C)(C)C(=O)O)C(C)(C)[C@@H]5CC[C@]43C)[C@@H]12` [Compound 2, bevirimat, reference compound], the EC50 (HIV-1; Human immunodeficiency virus 1) was 0.063 µM and the CC50 (in vitro [1]) was 16.3 µM.
Work on `C=C(CBr)[C@@H]1CC[C@]2(C(=O)NC(CC(C)C)C(=O)O)CC[C@]3(C)[C@H](CC[C@@H]4[C@@]5(C)CC[C@H](OC(=O)CC(C)(C)C(=O)O)C(C)(C)[C@@H]5CC[C@]43C)[C@@H]12` (stereo partly drawn) [Compound 30, N-[3β-O-(3′,3′-Dimethylsuccinyl)-30-bromo-lup-20(29)-en-28-oyl]-leucine] yielded a CC50 at 4 day (in vitro [2]) of 33.2 µM, a melting point of 105 to 107 °C and an EC50 (HIV-1IIIB; [10]) of 0.011 µM.
For `C=C(C)[C@@H]1CC[C@]2(C(=O)NCCCCCCCC(=O)O)CC[C@]3(C)[C@H](CC[C@@H]4[C@@]5(C)CC[C@H](O)C(C)(C)[C@@H]5CC[C@]43C)[C@@H]12` [Compound 23, N-[3β-Hydroxy-lup-20(29)-en-28-oyl]-8-aminooctanoic acid], the “half life (t1/2, time to lose 50% of parent)” value [3] was “around 35 min”, the CC50 (mock-infected MT-2 cell [4]) was 33.4 µM and the EC50 (HIV-1IIIB) was 3.3 µM.
For `C=C(COCCN1CCOCC1)[C@@H]1CC[C@]2(C(=O)NCCCCCCCC(=O)O)CC[C@]3(C)[C@H](CC[C@@H]4[C@@]5(C)CC[C@H](O)C(C)(C)[C@@H]5CC[C@]43C)[C@@H]12` [Compound 20, N-[3β-Hydroxy-30-(2′-morpholinoethoxy)-lup-20(29)-en-28-oyl]-8-aminooctanoic acid], the EC50 (HIV-1) was 0.17 µM, the CC50 [5] was 12.4 µM and the “solubility (in words)” value ([6]; Example 1 compounds) was “increase in the derivative's solubility”. The “solubility (in words)” value [6, 11] was “increased solubility”, the EC50 (HIV-1IIIB) was 1.8 µM and the “protein binding affinity (in words)” value [7] was “decreased protein binding affinity”. The CC50 (mock-infected MT-2 cell [8]) was 24.8 µM.
With `C=C(COCCN1CCOCC1)[C@@H]1CC[C@]2(C(=O)NCCCCCCCC(=O)NC)CC[C@]3(C)[C@H](CC[C@@H]4[C@@]5(C)CC[C@H](O)C(C)(C)[C@@H]5CC[C@]43C)[C@@H]12` [Compound 21] the EC50 (HIV-1) was 0.046 µM, the CC50 [5] was 12 µM and the “solubility (in words)” value ([6]; Example 1 compounds) was “good solubility”. For the same compound, the “solubility (in words)” value [6, 11] was “increased solubility”, the EC50 (HIV-1NL4-3) was 0.09 µM and the CC50 (mock-infected MT-4 cell) was over 10 µM. For the same compound, the EC50 (HIV-1IIIB) was 0.09 µM, the “protein binding affinity (in words)” value [7] was “decreased protein binding affinity” and the CC50 (mock-infected MT-2 cell [8]) was 22.3 µM.
In the case of `C=C(C)[C@@H]1CC[C@]2(C(=O)N3CCC(CCCC(=O)O)CC3)CC[C@]3(C)[C@H](CC[C@@H]4[C@@]5(C)CC[C@H](O)C(C)(C)[C@@H]5CC[C@]43C)[C@@H]12` [Compound 38, N-[3β-Hydroxy-lup-20(29)-en-28-oyl]-4-piperidine butyric acid], the “Persentage of Remaining Parent Compounds (X ± SD) %” value ([9]; incubation time 0 min) is reported as 100.0%, the “Persentage of Remaining Parent Compounds (X ± SD) %” value ([9]; incubation time 5 min) is reported as 101.7 ± 4.7% and the “Persentage of Remaining Parent Compounds (X ± SD) %” value ([9]; incubation time 15 min) is reported as 97.6 ± 6.2%. The “Persentage of Remaining Parent Compounds (X ± SD) %” value ([9]; incubation time 30 min) was 81.4 ± 8.6%, the “Persentage of Remaining Parent Compounds (X ± SD) %” value ([9]; incubation time 60 min) was 62.7 ± 4.3% and the “Persentage of Remaining Parent Compounds (X ± SD) %” value ([9]; incubation time 120 min) was 53.8 ± 3.8%. The melting point was 145 to 146 °C, the EC50 (HIV-1IIIB; [10]) was 21.7 µM and the CC50 (mock-infected MT-2 cell [8]) was 41 µM.
